Our source for the IC50 and inhibition values is ChEMBL document CHEMBL3045473, “Affinity of 3-benzylidene- and 3-cinnamylidenemyosmine analogues for Periplaneta americana nicotinic acetylcholine receptors” (J Pestic Sci, 2006).

Assay [1] has as its target T1, Nicotinic acetylcholine receptor alpha8 subunit (Periplaneta americana, UniProt H6TY12).
T1 sequence (H6TY12 whole entry): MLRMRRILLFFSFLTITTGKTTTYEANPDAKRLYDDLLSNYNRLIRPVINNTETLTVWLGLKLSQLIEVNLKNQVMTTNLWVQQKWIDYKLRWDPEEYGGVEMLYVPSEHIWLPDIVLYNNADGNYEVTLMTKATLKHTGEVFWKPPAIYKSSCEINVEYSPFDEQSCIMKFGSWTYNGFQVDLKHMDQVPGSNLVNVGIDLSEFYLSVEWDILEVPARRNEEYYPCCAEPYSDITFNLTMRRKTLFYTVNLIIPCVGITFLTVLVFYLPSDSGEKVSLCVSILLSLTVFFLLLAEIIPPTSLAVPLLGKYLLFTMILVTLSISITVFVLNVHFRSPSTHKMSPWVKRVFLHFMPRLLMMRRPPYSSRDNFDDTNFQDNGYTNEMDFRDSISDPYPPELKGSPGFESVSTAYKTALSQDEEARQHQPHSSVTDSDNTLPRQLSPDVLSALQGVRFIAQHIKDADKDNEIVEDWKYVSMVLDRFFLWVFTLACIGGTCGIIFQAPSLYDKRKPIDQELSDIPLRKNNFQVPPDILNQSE
As to the kind of experiment: Displacement of [3H]epibatidine from nAChR in Periplaneta americana (American cockroach) nerve cords membranes incubated at 24 degC for 2 hr by liquid scintillation counting method. In general terms: Loss of bound radioactivity is the signal in a displacement assay; it reports binding, not function.

Assay [2] addresses T2, Nicotinic acetylcholine receptor alpha8 subunit (Periplaneta americana) (UniProt H6TY12).
T2 sequence (whole entry): T1 sequence (H6TY12 whole entry)
As to the kind of experiment: Displacement of [3H]epibatidine from nAChR in Periplaneta americana (American cockroach) nerve cords membranes at 10 uM incubated at 24 degC for 2 hr by liquid scintillation counting method.

What is called IC50 is the concentration needed to halve the response being measured. The low end stands for greater potency, the high end for weaker potency. In assay [1], `CN(C)c1ccc(/C=C2\CCN=C2c2cccnc2)cc1` gave an IC50 of 5.49 µM.
In general, inhibition refers to the relative decrease from the control value, in per cent. With `COc1cccc(/C=C2\CCN=C2c2cccnc2)c1`, the inhibition in assay [2] was determined as 23.6%. Besides, the IC50 in assay [1] was > 10 µM.
Compound `COc1ccc(/C=C2\CCN=C2c2cccnc2)c(O)c1` registered a 50% inhibitory concentration (IC50) in assay [1] of 3.89 µM.
The same measure, in the same setting: the result for `Clc1ccc(C2=NCCC/C2=C\c2ccccc2)cn1` reads 0.0212 µM.
In assay [2], `c1cncc(C2=NCCC2)c1` [MYOSMINE] registered an inhibition of 27.3%. In assay [1], the IC50 was > 10 µM.
In turn, `Oc1ccc(/C=C2\CCN=C2c2cccnc2)cc1` registered an IC50 in assay [1] of 0.31 µM.
Still for that read-out and setting: the result for `COc1ccc(/C=C2\CCN=C2c2cccnc2)c(OC)c1` reads 4.55 µM; that for `Oc1ccc(/C=C2\CCN=C2c2cccnc2)c(O)c1`, 0.12 µM.
In assay [2], `Clc1ccc(/C=C2\CCN=C2c2cccnc2)cc1` came in with an inhibition of 21.5%. For the same compound, in assay [1], the IC50 is > 10 µM.
For `Oc1cccc(/C=C2\CCN=C2c2cccnc2)c1` the same measures were 32.1% and > 10 µM.
Compound `C(=C1/CCCN=C1c1cccnc1)/c1ccccc1` [3-BENZYLIDENEANABASEINE] gave an IC50 in assay [1] of 0.035 µM.
Compound `COc1ccc(/C=C2\CCN=C2c2cccnc2)cc1` had an inhibition in assay [2] of 31.4%. For the same compound, in assay [1], the IC50 was > 10 µM.
For the compound `C(=C\c1ccccc1)/C=C1\CCN=C1c1cccnc1` [3-CINNAMYLIDENEMYOSMINE], the IC50 in assay [1] came to 3.52 µM.
In assay [2], `N#Cc1ccc(/C=C2\CCN=C2c2cccnc2)cc1` displayed an inhibition of 31.4%. Besides, the IC50 in assay [1] was > 10 µM.
On to `Oc1ccccc1/C=C1\CCN=C1c1cccnc1`, for which the IC50 in assay [1] was 6.9 µM.
With `Fc1ccc(/C=C2\CCN=C2c2cccnc2)cc1`, the inhibition in assay [2] was 22.3%. In addition, the half-maximal inhibitory concentration (IC50) in assay [1] is > 10 µM.
Consider `C(=C1/CCN=C1c1cccnc1)/c1ccccc1`, for which the inhibition in assay [2] was 41.3%. Also, the IC50 in assay [1] is > 10 µM.
As for `CN(C)c1ccc(/C=C/C=C2\CCN=C2c2cccnc2)cc1`, the IC50 in assay [1] was 2.07 µM.
`COc1ccccc1/C=C1\CCN=C1c1cccnc1`: in assay [2], the inhibition worked out at 49.5%. For the same compound, the IC50 in assay [1] is > 10 µM.
